System: LLC-EpCAM subcutaneous tumors
Test: Combination therapy of LLC-Ep subcutaneous tumors in C57BL/6 mice with indomethacin (Example 5), tumor volume
Format: in vivo
Details: after treatment for 22 days; fusion protein 25 μg/mouse i.v., 5 daily injections; indomethacin 20 μg/mL in drinking water throughout
Method: FIG. 5 is a line graph depicting the effect on subcutaneous tumors of an antibody-cytokine fusion protein administered either alone or in combination with indomethacin. The size of LLC-EpCAM subcutaneous tumors were monitored in mice treated with phosphate buffered saline (closed diamonds), a huKS-huγ1-huIL2 fusion protein (closed squares), indomethocin (closed triangles), and a combination of the huKS-huγ1-huIL2 fusion protein and indomethocin (crosses).
Female C57lB6 mice were injected subcutaneously in the mid-back with LLC-Ep cells (5×10^5 per mouse) grown in cell culture. After about two weeks, animals with palpable tumors in the range of 150-400 mm^3 were divided into four groups, with an equal distribution of tumor sizes between the groups. […] Tumor growth was monitored by volumetric measurements until animals in the control group became moribund and were euthanized. Tumor volumes were measured with calipers and calculated as V=4 π/3 (0.5L×0.5W×0.5H), where L is the length, W is the width, and H is the height of the tumor. […]
When the tumors reached 100-200 mm^3 in size (about 7 to 14 days), the mice were randomized into four groups, 5 mice per group. […] Tumor volumes were measured as described in Example 3. […]

For `COc1ccc2c(c1)c(CC(=O)O)c(C)n2C(=O)c1ccc(Cl)cc1` [indomethacin], the T/C ratio was 0.60.

From patent US20040033210A1, “Enhancement of antibody-cytokine fusion protein mediated immune responses by co-administration with prostaglandin inhibitor” (EMD Lexigen Research Center Corp., priority 1998, published 2004)
